Measured values from patent US7265116B2, “Aryl and heteroaryl substituted tetrahydroisoquinolines and use thereof” (ARM Technology, Inc., priority 1999, dated 2007).

What was measured:
[1] = system: dopamine transporter protein over the norepinephrine transporter protein; settings: selectivity for dopamine transporter over norepinephrine transporter; cited from earlier work
[2] = cited from earlier work

Structure (SMILES): CN1Cc2cc(-c3ccoc3)ccc2C(c2ccccc2)C1 (stereo not drawn)
- melting point: 188 to 189 °C (dec.)

Structure (SMILES): COC(=O)C(c1ccccc1)C1CCCCN1 (stereo not drawn) [Methylphenidate]
- DAT/NET Ki ratio [1]: 0.1

Structure (SMILES): CN1Cc2c(N)cccc2C(c2ccccc2)C1 (stereo not drawn) [Nomofensine]
- side effect of long term administration [2]: fatal immune hemolytic anemia
